Type in all cases: binding
The target of assay [1] is T1, fatty acid synthase I (FAS I) (Mycobacterium tuberculosis, UniProt P95029). The assay can be described thus: biochemical.
Assay [2] addresses T1, fatty acid synthase I (FAS I). In words: STD-NMR.
Assay [3] has the same target. In words: STD-NMR, competition titration with PZA.

The results in this text go back to publication PMC4356482 (Bioorganic & medicinal chemistry letters, 2011).

Molecules are shown by their SMILES.

By Kd is commonly meant a measure of binding affinity in units of concentration. The low end stands for a tighter complex, the high end for a looser complex. Consider `NC(=O)c1cnccn1` [PZA, Pyrazinamide], for which, in assay [1], the Kd was in the range of 70 to 123 µM. As to `C/C=C/C/C=C/CCC(=O)[C@H]1O[C@H]1C(N)=O` [Cerulenin], the “STD-NMR (positive control, 350 μM cerulenin)” value in assay [2] is “displays signals corresponding to cerulenin resonances that are indicative of cerulenin binding to Mtb FAS I”. As to `O=C(O)c1cnccn1` [POA, pyrazinoic acid], the “STD-NMR, competition titration with PZA” value in assay [3] is “although POA binds reversibly to Mtb FAS I it does not compete with PZA since PZA is apparently not displaced”.

On to `NC(=O)C1=CN([C@@H]2O[C@H](COP(=O)(O)OP(=O)(O)OC[C@H]3O[C@@H](n4cnc5c(N)ncnc54)[C@H](OP(=O)(O)O)[C@@H]3O)[C@@H](O)[C@H]2O)C=CC1` [NADPH], for which the “STD-NMR, competition titration with PZA” value in assay [3] is given as “Consistent with the binding of NADPH to Mtb FAS I the intensity of the NADPH resonances increases”.
